Test results: patent US20230265151A1, “GIP/GLP1 CO-AGONIST COMPOUNDS” (priority 2020, published 2023)
Like-named read-outs stand apart in the source and are kept apart here. *1 amine or outer side, *2 acyl side, *3 side chain or, on linkers, in order; H or OH if unused. Where a SMILES comes first, the peptide text is derived from it. Side-chain parts run from the residue outwards. [ ]: non-standard residue; d: D form. The star is where a group is joined. Decanoyl(10-(4-HOOC-PhO)) = O=C(O)c1ccc(OCCCCCCCCCC(=O)*)cc1; αMePhe(2-F) = C[C@](N)(Cc1ccccc1F)C(=O)O; γGlu = O=C(O)[C@H](CCC(=O)[*:2])N[*:1]; αMeY = C[C@](N)(Cc1ccc(O)cc1)C(=O)O; αMeL = CC(C)C[C@](C)(N)C(=O)O; Orn = NCCC[C@H](N)C(=O)O; AEEA = NCCOCCOCC(=O)O; Aib = CC(C)(N)C(=O)O

How the values were obtained:
Assay type in all cases: cell-based
hGIPR = target: T1, hGIPR (Homo sapiens, UniProt P48546); experiment: Functional cAMP formation (HTRF) in HEK-293 clonal cells expressing hGIPR, 0.1% bovine casein, without or with 1.0% human serum albumin
T1 construct: expressed in transfected cells
T1 sequence (P48546 22-466): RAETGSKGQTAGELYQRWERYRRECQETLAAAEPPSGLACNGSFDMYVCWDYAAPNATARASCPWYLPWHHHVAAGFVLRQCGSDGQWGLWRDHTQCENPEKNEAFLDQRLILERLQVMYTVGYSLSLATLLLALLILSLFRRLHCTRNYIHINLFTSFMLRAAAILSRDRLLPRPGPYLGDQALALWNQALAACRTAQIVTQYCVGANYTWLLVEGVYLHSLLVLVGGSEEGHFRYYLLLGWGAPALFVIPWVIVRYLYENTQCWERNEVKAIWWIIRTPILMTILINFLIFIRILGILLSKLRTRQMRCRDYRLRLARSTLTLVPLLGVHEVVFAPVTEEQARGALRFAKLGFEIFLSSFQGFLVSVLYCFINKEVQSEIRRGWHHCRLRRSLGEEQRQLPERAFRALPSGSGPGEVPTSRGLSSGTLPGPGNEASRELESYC
Procedure, shortened: (§1)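 Cells were stimulated with peptide for 30 min at 37° C, then lysed in buffer carrying cAMP-d2 and anti-cAMP Eu3+-cryptate for a competitive HTRF read after at least 60 min at room temperature. The 665/620 nm ratio was converted to nM cAMP against a standard curve.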

hGCGR = target: T2, hGCGR (Homo sapiens, UniProt P47871); experiment: Functional cAMP formation (HTRF) in HEK-293 clonal cells expressing hGCGR, 0.1% bovine casein, without or with 1.0% human serum albumin; conditions: hGCGR EC50, nM (SEM, n), geometric mean
T2 construct: expressed in transfected cells
T2 sequence (P47871 26-477): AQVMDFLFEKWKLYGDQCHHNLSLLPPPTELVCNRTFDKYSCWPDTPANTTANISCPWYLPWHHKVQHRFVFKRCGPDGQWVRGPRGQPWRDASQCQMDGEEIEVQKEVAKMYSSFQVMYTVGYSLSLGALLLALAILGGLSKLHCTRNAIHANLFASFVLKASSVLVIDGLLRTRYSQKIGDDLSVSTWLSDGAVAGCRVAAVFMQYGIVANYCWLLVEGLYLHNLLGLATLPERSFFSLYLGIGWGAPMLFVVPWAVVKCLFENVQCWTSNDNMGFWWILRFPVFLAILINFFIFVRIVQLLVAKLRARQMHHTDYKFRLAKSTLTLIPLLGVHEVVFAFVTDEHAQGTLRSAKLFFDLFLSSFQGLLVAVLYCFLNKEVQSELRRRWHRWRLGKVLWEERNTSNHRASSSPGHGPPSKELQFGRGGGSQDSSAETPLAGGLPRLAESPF
Procedure, shortened: as §1

hGLP-1R = hGLP-1R (Homo sapiens, UniProt P43220); experiment: Functional cAMP formation (HTRF) in HEK-293 clonal cells expressing hGLP-1R, 0.1% bovine casein, without or with 1.0% human serum albumin; design: expressed in transfected cells; conditions: for EC50: hGLP-1R EC50, nM (SEM, n), cAMP, 0.1% bovine casein (no human serum albumin), geometric mean
Sequence of hGLP-1R (P43220 24-463): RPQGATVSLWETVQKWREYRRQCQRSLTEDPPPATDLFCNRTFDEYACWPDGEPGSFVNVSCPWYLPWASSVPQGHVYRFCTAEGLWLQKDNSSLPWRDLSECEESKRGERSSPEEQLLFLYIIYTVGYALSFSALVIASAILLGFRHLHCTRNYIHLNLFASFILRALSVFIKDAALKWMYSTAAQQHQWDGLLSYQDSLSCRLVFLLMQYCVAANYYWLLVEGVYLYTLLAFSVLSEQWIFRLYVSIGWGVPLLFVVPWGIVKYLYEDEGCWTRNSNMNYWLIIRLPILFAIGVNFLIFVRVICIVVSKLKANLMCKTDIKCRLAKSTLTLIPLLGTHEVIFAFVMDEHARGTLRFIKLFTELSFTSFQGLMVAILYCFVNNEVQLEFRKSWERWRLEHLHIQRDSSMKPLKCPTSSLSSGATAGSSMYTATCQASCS
Procedure, shortened: as §1

[1] = 0.1% bovine casein and 1.0% human serum albumin, 37° C.

| Structure (SMILES) | Emax (hGIPR; HEK293, read-out: hGIPR Emax, % ± SEM, 0.1% bovine casein and 1.0% human serum albumin, 37° C., percent of maximal response to GIP(1-42)NH2) [%] | Emax (hGIPR; HEK293, read-out: hGIPR Emax, % ± SEM, percent of maximal response to GIP(1-42)NH2, 37° C., 0.1% bovine casein, arithmetic mean) [%] | EC50 (hGIPR; hGIPR EC50, nM (SEM, n), cAMP, incubated at 37° C., 0.1% bovine casein (no human serum albumin), geometric mean) [nM] | EC50 (hGCGR; [1]) [nM] | EC50 (hGCGR; cAMP, incubated at 37° C., 0.1% bovine casein (no human serum albumin)) [nM] | Emax (hGLP-1R; HEK293, read-out: hGLP-1R Emax, % ± SEM, 0.1% bovine casein and 1.0% human serum albumin, 37° C., percent of maximal response to GLP-1(7-36)NH2) [%] | Emax (hGLP-1R; HEK293, read-out: hGLP-1R Emax, % ± SEM, percent of maximal response to GLP-1(7-36)NH2, 37° C., 0.1% bovine casein, arithmetic mean) [%] | EC50 (hGLP-1R; incubated at 37° C.) [nM] | Emax (hGIPR; HEK293, read-out: hGIPR Emax, % ± SEM, cAMP, 37° C., 0.1% bovine casein, percent of maximal response to GIP(1-42)NH2, arithmetic mean) [%] | EC50 (hGCGR; cAMP, 37° C., 0.1% bovine casein (no human serum albumin)) [nM] | EC50 (hGLP-1R; 37° C.) [nM] |
| --- | --- | --- | --- | --- | --- | --- | --- | --- | --- | --- | --- |
| CC[C@H](C)[C@H](NC(=O)[C@H](CCCN)NC(=O)[C@H](CC(=O)O)NC(=O)[C@H](CC(C)C)NC(=O)[C@](C)(CC(C)C)NC(=O)[C@@H](NC(=O)C(C)(C)NC(=O)[C@H](Cc1ccc(O)cc1)NC(=O)[C@H](CC(=O)O)NC(=O)[C@H](CO)NC(=O)[C@@H](NC(=O)[C@](C)(Cc1ccccc1F)NC(=O)[C@@H](NC(=O)CNC(=O)[C@H](CCC(=O)O)NC(=O)C(C)(C)NC(=O)[C@@H](N)Cc1ccc(O)cc1)[C@@H](C)O)[C@@H](C)O)[C@@H](C)CC)C(=O)N[C@@H](C)C(=O)N[C@@H](CCC(N)=O)C(=O)NC(C)(C)C(=O)N[C@@H](CCCCNC(=O)COCCOCCNC(=O)COCCOCCNC(=O)CC[C@H](NC(=O)CCCCCCCCCOc1ccc(C(=O)O)cc1)C(=O)O)C(=O)N[C@@H](Cc1ccccc1)C(=O)N[C@H](C(=O)N[C@H](CCC(=O)O)C(=O)N[C@@](C)(Cc1ccc(O)cc1)C(=O)N[C@@H](CC(C)C)C(=O)N[C@H](C(=O)N[C@@H](CCC(=O)O)C(=O)NCC(=O)NCC(=O)N1CCC[C@H]1C(=O)N[C@@H](CO)C(=O)N[C@@H](CO)C(=O)NCC(=O)N[C@@H](C)C(=O)N1CCC[C@H]1C(=O)N1CCC[C@H]1C(=O)N1CCC[C@H]1C(=O)N[C@@H](CO)C(=O)N[C@@H](CCCCNC(=O)COCCOCCNC(=O)COCCOCCNC(=O)CC[C@H](NC(=O)CCCCCCCCCOc1ccc(C(=O)O)cc1)C(=O)O)C(N)=O)[C@@H](C)CC)[C@@H](C)CC [Example 241] (H-Y[Aib]EGT[αMePhe(2-F)]TSDY[Aib]I[αMeL]LD[Orn]IAQ[Aib]K([AEEA-AEEA-γGlu-Decanoyl(10-(4-HOOC-PhO))])FI[dE][αMeY]LIEGGPSSGAPPPSK([AEEA-AEEA-γGlu-Decanoyl(10-(4-HOOC-PhO))])-NH2; N-terminus assumed) | 84.9 | 105 | 0.0213 | > 9950 | > 9950 | 105 | 91 | 0.362 | – | – | – |
| CCCC[C@H](NC(=O)[C@H](CC(=O)O)NC(=O)[C@H](CO)NC(=O)[C@@H](NC(=O)[C@](C)(Cc1ccccc1F)NC(=O)[C@@H](NC(=O)CNC(=O)[C@H](CCC(=O)O)NC(=O)C(C)(C)NC(=O)[C@@H](N)Cc1ccc(O)cc1)[C@@H](C)O)[C@@H](C)O)C(=O)N[C@@H](CO)C(=O)N[C@H](C(=O)N[C@@](C)(CC(C)C)C(=O)N[C@@H](CC(C)C)C(=O)N[C@@H](CC(=O)O)C(=O)N[C@@H](CCCN)C(=O)N[C@H](C(=O)N[C@@H](C)C(=O)N[C@@H](CCC(N)=O)C(=O)NC(C)(C)C(=O)N[C@@H](CCC(=O)O)C(=O)N[C@@H](Cc1ccccc1)C(=O)N[C@H](C(=O)N[C@@H](CCCCNC(=O)COCCOCCNC(=O)COCCOCCNC(=O)CC[C@H](NC(=O)CCCCCCCCCOc1ccc(C(=O)O)cc1)C(=O)O)C(=O)N[C@@](C)(Cc1ccc(O)cc1)C(=O)N[C@@H](CC(C)C)C(=O)N[C@H](C(=O)N[C@@H](CCCCNC(=O)COCCOCCNC(=O)COCCOCCNC(=O)CC[C@H](NC(=O)CCCCCCCCCOc1ccc(C(=O)O)cc1)C(=O)O)C(=O)NCC(=O)NCC(=O)N1CCC[C@H]1C(=O)N[C@@H](CO)C(=O)N[C@@H](CO)C(=O)NCC(=O)N[C@@H](C)C(=O)N1CCC[C@H]1C(=O)N1CCC[C@H]1C(=O)N1CCC[C@H]1C(=O)N[C@@H](CO)C(N)=O)[C@@H](C)CC)[C@@H](C)CC)[C@@H](C)CC)[C@@H](C)CC [Example 314] | – | – | – | > 9950 | – | – | – | – | 100 | > 9950 | 0.673 |
